Assay results reported in patent publication US11541029B2, “High penetration compositions and their applications” (Techfields Pharma Co., Ltd., priority 2008, dated 2023).

Tests used:
SLAC/DB/DB obese mice = assay: Blood glucose and blood lipid levels in DB/DB mice; format: in vivo; conditions: 30 mg/kg transdermally once per day
Outline: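 SLAC/DB/DB mice aged 10-12 weeks, n=7, dosed transdermally at 30 mg/kg in 25% ethanol onto a shaved 4 cm^2 back area once daily at 8 am for 5 weeks. Blood glucose measured weekly; blood lipids every other week.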

[1] = test system: fungal diseases and insects of grape vine; assay: Antiviral, anti-fungus, anti-insect activity in red grape vine; format: in vivo
From the text: 2 Acres of grape vine was divided into 4 groups (½ acre each). All field operations concerning land preparation and the uses of fertilizers were same for all groups. Group A was control group treated with no chemicals. Group B was normal fungicides and insecticides-treated group. Group C was N,N-diethylaminoethyl acetylsalicylate treated group. Group D was N,N-diethylaminoethyl acetylsalicylate and N,N-diethylaminoethyl jasmonate.citric acid treated group. In group A, black rot, downy mildew, powdery mildew, anthracnose, Phomopsis Blight, and other fungal diseases were found and Grape Berry Moth, Grape Root Borer, Rose Chafer, Japanese beetle, grape tomato gall, and other diseases and insects were found. Yield nothing of good (edible) grapes. In group B, 200 g of Ferbam 76% WP in 100 kg of water was applied to the group B grape vines in November 15; 160 g of sulfur 95% WP and 600 g of hydrated lime in 100 kg of water was applied to the group B grape vines in December 15; 200 g of Daconil 2787 in 100 kg of water was applied to the group B grape vines in March 10; 250 g of Captan 50% WP and 200 g of dimethomorph 50% WP in 100 kg of water was applied to the group B grape vines in March 20; 30 g of (4″R)-4″-deoxy-4″-(methylamino)avermectin B1 benzoate [proclaim ? (banleptm)] […]

[2] = test system: Human colon cancer cells (LS174J); assay: Human colon cancer xenograft in nude mice
From the text: Human colon cancer cells (LS174J, 2-3 mm^3 of tumor tissue was used in each mouse) were subcutaneously xenografted into nude mice (BALB).

With CCN(CC)CCOC(=O)c1ccccc1OC(C)=O.Cl [P-1, diethylaminoethyl acetylsalicylate.HCl salt] the “Cholesterol (total), Day 1” value (SLAC/DB/DB obese mice) was 7.1 ± 0.4 mmol/L, the “Cholesterol (total), Week 5” value (SLAC/DB/DB obese mice) was 4.1 ± 0.4 mmol/L and the “Triglycerides, Day 1” value (SLAC/DB/DB obese mice) was 4.1 ± 0.5 mmol/L. For the same compound, the “Triglycerides, Week 5” value (SLAC/DB/DB obese mice) was 1.5 ± 0.3 mmol/L, the “blood glucose, Day 1” value (SLAC/DB/DB obese mice) was 14.1 ± 2.6 mmol/L and the “blood glucose, Week 5” value (SLAC/DB/DB obese mice) was 6.8 ± 2.8 mmol/L. For the same compound, the “Yield of good (edible) grapes” value ([1]; 1/2 acre per group, Malathion co-applied in group C) was 6300 kg, the harvest dates earlier ([1]; groups C and D) was 10 days and the “tumor Size at day 30” value ([2]; about 50 μl of 5% topically every 12 hours) was 480 ± 130 mm^3. The “Weight of mice at day 30” value ([2]; in vivo) was 23 ± 3.
